According to article PMC4303583 (International journal of biological macromolecules, 2012):
Where two headings read alike, the source gives them in different places.

Legend:
[1] = tested on: wild-type E. coli strain pBWU13.4/DK8; type: cell-based, Escherichia coli
[2] = biological target: T1, E. coli ATP synthase (purified F1 or membrane bound F1Fo) (Escherichia coli, UniProt P0ABA6+P0ABB0+P0ABB4); experiment: biochemical; type: biochemical
[3] = biological target: T1, E. coli ATP synthase (purified F1 or membrane bound F1Fo); settings: maximal inhibition; cited from earlier work
[4] = OD595 after ~20 hours growth at 37 °C, control 100, null 45
[5] = left over ATPase activity at maximal inhibition
[6] = purified F1 or membranes, preincubated 60 min at 23°C, varied concentrations
[7] = left over ATPase activity at maximal inhibition, purified F1 or membranes

T1 sequence (P0ABA4 whole entry): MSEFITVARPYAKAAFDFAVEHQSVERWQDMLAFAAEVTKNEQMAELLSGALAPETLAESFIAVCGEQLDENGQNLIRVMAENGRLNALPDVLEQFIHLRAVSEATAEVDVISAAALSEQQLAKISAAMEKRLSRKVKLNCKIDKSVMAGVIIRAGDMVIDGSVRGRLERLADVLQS
T1 sequence (P0ABB4 2-460): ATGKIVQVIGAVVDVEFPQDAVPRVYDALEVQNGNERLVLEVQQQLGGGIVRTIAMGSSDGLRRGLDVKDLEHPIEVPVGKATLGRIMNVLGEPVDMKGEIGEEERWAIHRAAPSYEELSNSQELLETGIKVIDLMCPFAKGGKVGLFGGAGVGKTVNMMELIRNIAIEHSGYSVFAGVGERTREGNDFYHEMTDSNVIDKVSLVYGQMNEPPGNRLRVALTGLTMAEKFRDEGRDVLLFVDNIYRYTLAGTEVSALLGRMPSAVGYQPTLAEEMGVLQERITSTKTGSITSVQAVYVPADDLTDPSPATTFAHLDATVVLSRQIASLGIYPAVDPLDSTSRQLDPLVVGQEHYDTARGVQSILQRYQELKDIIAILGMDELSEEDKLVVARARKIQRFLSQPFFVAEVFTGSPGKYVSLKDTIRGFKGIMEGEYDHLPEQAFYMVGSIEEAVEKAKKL
T1 sequence (P0ABA6 whole entry): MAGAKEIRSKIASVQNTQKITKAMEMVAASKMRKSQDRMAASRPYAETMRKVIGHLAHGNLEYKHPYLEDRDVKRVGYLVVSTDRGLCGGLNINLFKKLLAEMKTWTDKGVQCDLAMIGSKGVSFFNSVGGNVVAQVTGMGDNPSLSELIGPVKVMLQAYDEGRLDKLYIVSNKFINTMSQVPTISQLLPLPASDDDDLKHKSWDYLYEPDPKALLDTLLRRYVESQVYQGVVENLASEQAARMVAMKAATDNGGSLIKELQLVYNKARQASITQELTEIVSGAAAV
T1 sequence (P0A6E6 2-139, further chain): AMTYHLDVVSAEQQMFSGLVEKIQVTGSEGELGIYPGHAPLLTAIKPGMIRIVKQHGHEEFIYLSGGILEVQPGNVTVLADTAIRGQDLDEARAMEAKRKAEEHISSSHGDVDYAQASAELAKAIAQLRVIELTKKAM
T1 sequence (P0ABB0 whole entry): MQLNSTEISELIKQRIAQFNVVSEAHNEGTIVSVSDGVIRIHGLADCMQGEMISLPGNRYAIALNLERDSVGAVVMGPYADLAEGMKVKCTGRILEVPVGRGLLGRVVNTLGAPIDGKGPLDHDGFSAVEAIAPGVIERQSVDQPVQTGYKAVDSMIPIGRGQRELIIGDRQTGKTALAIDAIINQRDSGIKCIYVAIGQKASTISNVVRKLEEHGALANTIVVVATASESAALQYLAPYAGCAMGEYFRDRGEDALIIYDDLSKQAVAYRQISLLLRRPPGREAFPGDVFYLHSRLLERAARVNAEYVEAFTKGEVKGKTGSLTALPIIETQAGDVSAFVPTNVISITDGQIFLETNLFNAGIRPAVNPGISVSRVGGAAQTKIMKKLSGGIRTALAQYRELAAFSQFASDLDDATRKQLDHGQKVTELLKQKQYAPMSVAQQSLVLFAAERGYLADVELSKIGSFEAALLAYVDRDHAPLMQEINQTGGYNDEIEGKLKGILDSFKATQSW

Row | Compound | Growth yield in limiting glucose (%) [1, 4] [%] | Residual ATPase Activity (%) [2, 5] [%] | maximum amount of inhibition of ATPase activity [2, 6] | residual activity [2, 7] | IC50 [2] [µM] | other results
1 | 1,8,9-Anthracentriol [PC17] | 69 | 70 | ~ 30% | – | – | –
2 | Cc1cc(O)c(C(C)C)cc1O [PC01, Dihydrothymoquinone] | 66 | 60 | ~ 40% | ~ 60% | – | –
3 | Oc1ccc(O)cc1 [PC02, Hydroquinone] | – | – | – | – | ~20 | Growth yield in limiting glucose (%) [1]: 55%; Residual ATPase Activity (%) [2]: 20%; maximum amount of inhibition of ATPase activity [2]: ~ 80%
4 | Oc1cccc(O)c1 [PC03, Resorcinol] | 79 | 80 | ~ 20% | ~ 80% | – | –
5 | Oc1ccccc1O [PC04, Catechol] | 57 | 60 | ~ 40% | ~ 60% | – | –
6 | Oc1ccc(N=Cc2ccccc2O)cc1 [PC05, 2-[[(4-hydroxyphenyl)Imino]methyl]phenol] | 42 | 0 | – | – | ~5 | –
7 | Oc1cccc(N=Cc2ccccc2O)c1 [PC06, 2-[[(3-Hydroxyphenyl)imino]methyl]phenol] | 51 | 15 | – | – | ~5.25 | –
8 | Oc1cccc(C=Nc2ccccc2O)c1 [PC07, 3-[[(2-Hydroxyphenyl)imino]methyl]phenol] | – | 15 | – | – | ~9 | –
9 | Oc1ccc(C=Nc2cccc(O)c2)cc1 [PC08, 4-[[(3-Hydroxyphenyl)imino]methyl]phenol] | – | 0 | – | – | ~9 | –
10 | Oc1ccccc1C=Nc1ccccc1O [PC09, 2-[[(2-Hydroxyphenyl)imino]methyl]phenol] | – | 5 | – | – | ~7 | –
11 | Oc1cccc(C=Nc2cccc(O)c2)c1 [PC10, 3-[[(3-Hydroxyphenyl)imino]methyl]phenol] | – | 0 | – | – | ~2.25 | –
12 | Oc1ccc(C=Nc2ccc(O)cc2)cc1 [PC11, 4-[[(4-Hydroxyphenyl)imino]methyl]phenol] | – | 80 | – | ~ 80% | – | –
13 | O=[N+]([O-])c1cc(O)ccc1N=Cc1ccccc1O [PC12, 2-[[(4-Hydroxy-2-nitrophenyl)imino]methyl]phenol] | – | 0 | – | – | ~6 | –
14 | O=[N+]([O-])c1ccc(N=Cc2ccccc2O)c(O)c1 [PC13, 2-[[(2-Hydroxy-4-nitrophenyl)imino]methyl]phenol] | – | 0 | – | – | ~5 | –
15 | O=[N+]([O-])c1ccc(OP(=O)(Oc2ccc([N+](=O)[O-])cc2)Oc2ccc([N+](=O)[O-])cc2)cc1 [PC14, Tris(4-nitrophenyl)phosphate] | 57 | 55 | ~ 45% | ~ 55% | – | –
16 | O=[N+]([O-])c1ccc(OP(=O)(O)Oc2ccc([N+](=O)[O-])cc2)cc1 [PC15, Bis(4-nitrophenyl)phosphate] | 63 | 60 | ~ 40% | – | – | –
17 | O=C1c2cccc(O)c2C(=O)c2c(O)cccc21 [PC16, 1,8-Dihydroxy-9,10-anthraquinone] | 80 | 78 | ~ 22% | ~ 78% | – | –
18 | Oc1ccc(/C=C/c2cc(O)cc(O)c2)cc1 [resveratrol] | – | – | – | – | – | inhibition of E. coli ATP synthase [3]: ~ 40%
